Assay: Human HepG2 cell viability assay in 384 well format
Type: toxicity, cell-based
Set-up: dose 125 nL, time 70.5 hour; concentration not given beside the values
Details: HepG2 cells, read-out: Inhibition

| SMILES | cytotoxicity at 70.5 h [%] |
| --- | --- |
| O=C(CC1CCCC1)NCCS(=O)(=O)N1CCN(c2ccccc2)CC1 | -3.36 |
| Nc1nc2c(c(NC(=O)Nc3ccccc3)n1)CCCC2 | 16.9 |
| Nc1nc2c(c(NC(=O)Nc3ccc(Cl)c(Cl)c3)n1)CCCC2 | 9.83 |
| CCOC(=O)c1cc2n(n1)CCCO2 | 22.1 |
| Cc1cccc(N2CCN(S(=O)(=O)CCN)CC2)c1 | 21.4 |
| CCc1c(C)nc(-n2nc(-c3cccs3)cc2N)[nH]c1=O | -5.27 |
| Cc1cc(=O)[nH]c(-n2nc(C3CC3)cc2N)n1 | 29.2 |
| CC(C)c1cc(=O)[nH]c(-n2nc(C3CC3)cc2N)n1 | 58.1 |
| c1cncc(CNCCc2cccs2)c1 | -9.29 |
| O=c1n(Cc2cccc(F)c2)nc2ncccn12 | 15.8 |
| O=c1n(Cc2ccc(F)cc2)nc2ncccn12 | 24.8 |
| O=c1n(Cc2ccccc2F)nc2ncccn12 | 21 |
| CN1C(=O)CCc2cc(NC(=O)C3CC3)ccc21 | 10.6 |
| CN1C(=O)C(C)(C)COc2cc(NS(=O)(=O)c3ccccc3F)ccc21 | 16.6 |
| CC(C)CS(=O)(=O)Nc1ccc2c(c1)OCC(C)(C)C(=O)N2C | 50.7 |
| CCc1cc(=O)[nH]c2nnc(SCC(=O)NC)n12 | 14.5 |
| CCc1cc(=O)[nH]c2nnc(SCC(=O)NC(C)C)n12 | 17.6 |
| NC(=O)CSc1nnc2[nH]c(=O)c3c(n12)CCCC3 | -12.6 |
| COC(=O)CSc1nnc2[nH]c(=O)c3c(n12)CCCC3 | -13.8 |
| CCCNC(=O)CSc1nnc2[nH]c(=O)c3c(n12)CCCC3 | 12.2 |
| COc1nn(C)cc1C(=O)N1CCC(C)CC1 | 26.1 |
| O=C(Nc1ncnc2c1CCC2)c1ccc2c(c1)OCO2 | 1.01 |
| Cc1cnc2c(c1NCc1cccnc1)c(=O)n(C)c(=O)n2C | -0.599 |

| SMILES | cytotoxicity at 70.5 h [%] |
| --- | --- |
| CCc1cnc2c(c1Nc1ccc3c(c1)OCO3)c(=O)n(C)c(=O)n2C | -1.57 |
| CNC(=O)Cn1nc(C(C)C)c2cnn(C(C)(C)C)c2c1=O | 25.5 |
| COc1ccc(CCC(=O)NCc2cc(C)on2)cc1 | 8.95 |
| Cc1cnc2n(c1=O)C(CC(=O)NCc1ccc(Cl)cc1)CS2 (stereo not given) | -5.3 |
| Cc1cnc2n(c1=O)C(CC(=O)NCc1ccco1)CS2 (stereo not given) | -0.737 |
| CCCc1cc(=O)[nH]c2nnc(SCC(=O)NC(C)(C)C)n12 | -8.6 |
| CCn1cnc2c(cnn2-c2cccc(C)c2C)c1=O | 45.8 |
| CCCn1cnc2c(cnn2-c2cccc(C)c2C)c1=O | 37.7 |
| CCCc1cc(=O)n(CC(=O)NC(C)C)c(-n2nc(C)cc2C)n1 | -4.73 |
| O=C(CSC1=NS(=O)(=O)c2cc(F)ccc2N1)Nc1ccc(Cl)c(Cl)c1 | 19.7 |
| COCC(=O)NCc1nn(CCN2CCCC2)c(=O)c2ccccc12 | 29 |
| CCOC(=O)NCc1nn(CCN2CCCC2)c(=O)c2ccccc12 | 1.9 |
| Cn1cnnc1SCCCNC(=O)Nc1ncccn1 | -2.46 |
| COc1cn(CC(N)=O)c(CSc2nccc(C)n2)cc1=O | 23.4 |
| C=Cc1ccc(CSc2nc3c(c(=O)[nH]2)CN(CCC)CC3)cc1 | 8.58 |
| CC(=O)c1c(C)nn(CC(=O)Nc2ccc(Br)cc2)c1C | 4.72 |
| CC(C)(C)S(=O)(=O)c1ccc(N2CCN(c3ccccc3)CC2)nn1 | -8.92 |
| CC(C)(C)S(=O)(=O)c1ccc(N2CCN(c3ccccn3)CC2)nn1 | -17.1 |
| CCCS(=O)(=O)c1ccc(N2CCN(c3ccccn3)CC2)nn1 | 2.28 |
| COC(=O)CNC(=O)c1sccc1N(C)S(=O)(=O)c1ccc(Cl)cc1 | 2.69 |
| CCN(c1ccsc1C(=O)N1CCCCC1)S(=O)(=O)c1ccccc1 | -11.9 |
| CCN(CC)c1nc2ccsc2c(=O)n1CCC(=O)NCc1cccs1 | -9.85 |
| COC(=O)CN1N=C(C(=O)N2CCCC2)S(=O)(=O)c2ccccc21 | -4.54 |

| SMILES | cytotoxicity at 70.5 h [%] |
| --- | --- |
| COc1ncc(C(=O)NCc2ccc(Br)cc2)cn1 | -2.74 |
| O=c1c(S(=O)(=O)N2CCCC2)cccn1Cc1ccccc1Cl | -6.09 |
| O=c1[nH]c2c(-c3ccccn3)nsc2c(=O)n1CC1CCCO1 (stereo not given) | -11.7 |
| Cc1cc(C)n(-c2ccnc(N3CCC(C(=O)N4CCCC4)CC3)n2)n1 | -4.06 |
| COc1ccc(OC)c(C(O)CN2CCN(c3cccc(C)c3)CC2)c1 (stereo not given) | 7.32 |
| O=C(O)C1CCN(c2nc3c(-c4ccccc4F)csc3c(=O)[nH]2)CC1 | -0.14 |
| COCCCNC(=O)Cc1cc(-c2ccc3c(c2)OCO3)on1 | 13.4 |
| COc1nn(C)cc1-c1nnc(SCc2cccnc2)n1C | -5.69 |
| CCOc1nn(CC)cc1-c1nnc(SCc2ccccn2)n1C | -6.8 |
| CC(=O)N1C[C@H]2CCCN(c3ncc(C)cn3)[C@H]2C1 | -11.8 |
| Cc1cnc(N2CCC[C@@H]3CN(S(C)(=O)=O)C[C@@H]32)nc1 | -14.9 |
| O=C(CCO)N1CC2(CCN(c3ccccc3)C2)C1 | -1.72 |
| CC(C)NC(=O)N1CCC2(CCCO2)C1 (stereo not given) | 14.2 |
| CCOC1CC2(CCN(Cc3cnn(C)c3)CC2)c2ccc(C)cc21 (stereo not given) | 1.09 |
| CCCN1CCC2(C1)c1ccccc1S(=O)(=O)N2Cc1ccc(F)cc1 (stereo not given) | -1.79 |
| CCOC(=O)C1CN(S(C)(=O)=O)Cc2ncn(CC)c21 (stereo not given) | -0.182 |
| Cc1ccc(NC(=O)c2nc3c(s2)CCCN3C(C)C)cn1 | -0.97 |
| c1coc(CN2CCn3c(CN4CCOCC4)nnc3C2)c1 | -1.27 |
| Cc1noc([C@]23COC[C@H]2CN(S(C)(=O)=O)C3)n1 | -1.56 |
| CCOC1CC2(CCN(CCO)CC2)c2ccc(C)cc21 (stereo not given) | 1.71 |
| CN(C)C(=O)NCc1nnc2n1CCN(Cc1ccsc1)C2 | 3.34 |
| O=C(c1cc(-c2ccn(CC3CC3)n2)n2ccccc12)N1CCOCC1 | -2.8 |
| CN(C)C[C@H]1OC[C@@H]2CCN(C(=O)NCc3cccc(F)c3)C[C@@H]21 | -5.72 |

| SMILES | cytotoxicity at 70.5 h [%] |
| --- | --- |
| O=C(C1CN(Cc2ccoc2)CC12CCOCC2)N1CCCC1 (stereo not given) | 7.01 |
| O=C(O)c1cc(-c2ccn(CC3CC3)n2)n2ccccc12 | -1.77 |
| CC(=O)N1CC[C@H]2C(=O)N(c3ccsc3)CCO[C@H]2C1 | -2.46 |
| CS(=O)(=O)NCc1noc2c1CN(C(=O)c1ccsc1)CC2 | -7.43 |
| O=C(NCc1ccco1)N1CCCCC1c1nc(-c2ccncc2)no1 (stereo not given) | -12.6 |
| Cc1ccc(N2N=C(C(=O)O)S(=O)(=O)c3cccnc32)cc1 | -8.77 |
| CCc1nn2c(=N)c(C#N)n[nH]c2c1-c1ccc(OC)cc1 | -18.3 |
| Cn1c(=O)n(C)c2cc(NS(=O)(=O)Cc3ccccc3)ccc21 | -6.3 |
| COc1ccc(-c2c(C(C)C)nn3c(=N)c(C#N)n[nH]c23)cc1 | -20.1 |
| COc1ccc(-c2c(C)nn3c(=N)c(C#N)n[nH]c23)cc1OC | -15.3 |
| Cc1noc2nc3c(c(C(=O)/N=c4\[nH]ncs4)c12)CCC3 | 25.6 |
| COC(=O)CC1CCN(C(=O)c2ccc(-n3nnnc3C)cc2)CC1 | -11.6 |
| O=c1cc(-c2ccc(F)cc2)nc2n1CCCCC2 | -14 |
| COC(=O)c1cc2c(OC)c(OC)c(OC)cc2[nH]1 | -19.4 |
| COC(=O)c1cc2c(OC)c(C)c(OC)cc2[nH]1 | -9.36 |
| c1csc(-c2noc(C3CNC3)n2)c1 | -8.98 |
| Clc1cccnc1OC1CCNCC1 | 22.1 |
| N#Cc1cccnc1OC1CCNCC1 | 37.8 |
| CN1CC2(CCN(Cc3cccnc3)CC2)c2cccc(F)c21 | -2.73 |
| Cc1ccc(C)c(CSc2nnc(C(N)Cc3ccccc3)o2)c1 (stereo not given) | -14.6 |
| Cc1noc([C@]23COC[C@H]2CN(C(C)C)C3)n1 | 1.38 |
| CC(C)OCc1ncn2c1CN(CCO)CCC2 | -0.995 |
| CS(=O)(=O)NCc1cc(=O)n2c(n1)CN(Cc1ccco1)CCC2 | -1.24 |

| SMILES | cytotoxicity at 70.5 h [%] |
| --- | --- |
| CC(C)N1CCO[C@H]2CN(C(=O)Cc3cccs3)C[C@H]21 | -3.28 |
| COCCN1CCO[C@@H]2CN(C(=O)Cc3ccccc3)CC[C@@H]2C1 | -0.0515 |
| CN(C)C(=O)COCc1nnc2n1CCN(Cc1ccoc1)C2 | -3.1 |
| OCCN1CCOC2(CCCN(c3ncc(F)cn3)C2)C1 (stereo not given) | -3.36 |
| CN1CCCn2c(nc(CNS(=O)(=O)C3CC3)cc2=O)C1 | -1.98 |
| O=C(C1CN(CC2CCOCC2)CC12CCOCC2)N1CCCC1 (stereo not given) | -2.27 |
| CC(C)Nc1nc2c(c(N(C)C)n1)CCN(Cc1nccn1C)CC2 | 10.1 |
| Cc1cnc(N2CCC3(CC2)CN(c2ccsc2)C(=O)CO3)nc1 | -5 |
| COCCN1CCN(S(C)(=O)=O)Cc2ccc(C)nc21 | -2.02 |
| CCCS(=O)(=O)N1CCN(CCOC)c2nc(C)ccc2C1 | -8.9 |
| CCN1CCOCC12CCN(C(=O)Cc1cccs1)CC2 | -8.5 |
| Cc1ccc2c(n1)N(CC1CC1)CCN(S(=O)(=O)C1CC1)C2 | -5.85 |
| Fc1ccc(CNCC2Cn3nncc3CO2)cc1 (stereo not given) | -7.4 |
| Cc1cnc(N2CCC[C@@H]3CN(CC(=O)N(C)C)C[C@@H]32)nc1 | -6.11 |
| Cc1ccc(N2C[C@@H]3CN(Cc4ccoc4)CCO[C@@H]3C2)nn1 | 10.2 |
| OCCN1CC2(CCN(c3ccccc3)C2)C1 | 0.92 |
| Cc1ccc(NCc2cn3c(n2)CN(Cc2ccc(C)o2)CC3)nn1 | -4.46 |
| Cc1ccc2c(c1)C(N(C)C)CC21CCN(CCO)CC1 (stereo not given) | -0.704 |
| CN1[C@H](Cn2cncn2)C[C@@H]2CN(C3CCOCC3)CC[C@@H]21 | 0.159 |
| Fc1ccc(CN2CCC3(CC2)CCN(Cc2nccs2)CC3)cc1 | 1.45 |
| c1ccc(OCc2nnc3n2CCN(Cc2ccco2)C3)nc1 | -2.29 |
| COCC(=O)N1CCCC2(COCCN(CCN(C)C)C2)C1 (stereo not given) | 8.27 |
| CNC(=O)c1cnc2n1CCN(Cc1cccnc1)C2 | -2.74 |
